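Briefly, cells in 96-well plates were exposed to five compound concentrations for 48 h, and endpoints were estimated by linear interpolation. GI50 is the concentration that inhibits growth by half.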 Activity calls are given as the source filed them. Rule as the data show it: active = GI50 up to about 1.1 µM and inactive = higher.
Columns and labels:
Experiment in all cases: NCI anticancer screen, dose series, 48 h
MDA-N = test system: MDA-N
COLO 205 = test system: COLO 205
SK-MEL-5 = test system: SK-MEL-5
DU-145 = test system: DU-145
HOP-92 = test system: HOP-92
SW-620 = test system: SW-620
NCI-H460 = test system: NCI-H460
SK-OV-3 = test system: SK-OV-3
NCI-H522 = test system: NCI-H522
NCI-H23 = test system: NCI-H23
HCT-15 = test system: HCT-15
HOP-62 = test system: HOP-62
RXF 393 = test system: RXF 393
EKVX = test system: EKVX
NCI/ADR-RES = test system: NCI/ADR-RES
HCT-116 = test system: HCT-116
OVCAR-5 = test system: OVCAR-5
OVCAR-4 = test system: OVCAR-4
KM12 = test system: KM12
Malme-3M = test system: Malme-3M

Structure (SMILES) | GI50 (MDA-N) | GI50 (COLO 205) | GI50 (SK-MEL-5) | GI50 (DU-145) | GI50 (HOP-92) | GI50 (SW-620) | GI50 (NCI-H460) | GI50 (SK-OV-3) | GI50 (NCI-H522) | GI50 (NCI-H23) | GI50 (HCT-15) | GI50 (HOP-62) | GI50 (RXF 393) | GI50 (EKVX) | GI50 (NCI/ADR-RES) | GI50 (HCT-116) | GI50 (OVCAR-5) | GI50 (OVCAR-4) | GI50 (KM12) | GI50 (Malme-3M)
Cn1[nH]nn/c1=N\N=C\c1ccccc1 | > 10 µM (inactive) | > 10 µM (inactive) | > 10 µM (inactive) | > 10 µM (inactive) | > 10 µM (inactive) | > 10 µM (inactive) | > 10 µM (inactive) | > 10 µM (inactive) | > 10 µM (inactive) | > 10 µM (inactive) | > 10 µM | > 10 µM (inactive) | > 10 µM (inactive) | 2.9 µM (inactive) | > 10 µM (inactive) | > 10 µM (inactive) | > 10 µM (inactive) | > 10 µM (inactive) | > 10 µM (inactive) | 
CSc1nc(Br)nc2c1ncn2C1CC(Oc2ccc(C)cc2)C(COc2ccc(C)cc2)O1 (stereo not drawn) | > 100 µM (inactive) | > 100 µM (inactive) | > 100 µM (inactive) | > 100 µM (inactive) | > 100 µM (inactive) | > 100 µM (inactive) | > 100 µM (inactive) | > 100 µM (inactive) | > 100 µM (inactive) | 40.8 µM (inactive) | > 100 µM | > 100 µM (inactive) |  | > 100 µM (inactive) | > 100 µM (inactive) | > 100 µM (inactive) | > 100 µM (inactive) | 83 µM (inactive) | > 100 µM (inactive) | > 100 µM (inactive)
CN1C/C(=C\c2ccc(Cl)cc2)C(=O)/C(=C/c2ccc(Cl)cc2)C1 | 0.861 µM (active) | 0.979 µM (active) | 2.69 µM (inactive) | 2.54 µM (inactive) | > 26.9 µM (inactive) | 0.386 µM (active) | 1.17 µM (inactive) |  | 1.97 µM (inactive) | 2.44 µM (inactive) | 0.731 µM | 2.68 µM (inactive) | 0.834 µM (active) | 15.6 µM (inactive) | 1.37 µM (inactive) | 0.208 µM (active) | 3.34 µM (inactive) | 1.11 µM (active) | 0.774 µM (active) | 14.3 µM (inactive)
Cc1c(C(=O)OCc2ccccc2)[n+]([O-])c2cc(Cl)c(Cl)cc2[n+]1[O-] | 20.6 µM (inactive) | 18.2 µM (inactive) | 15 µM (inactive) | 14.5 µM (inactive) | 6.27 µM (inactive) |  | 14.2 µM (inactive) | 22.5 µM (inactive) |  | 18.5 µM (inactive) | 16.1 µM | 14.2 µM (inactive) | 19.1 µM (inactive) | 13.9 µM (inactive) | 18.2 µM (inactive) | 14.2 µM (inactive) | 21.3 µM (inactive) | 14 µM (inactive) | 10.5 µM (inactive) | 
C#CC1=CC(=O)C(OC)=CC1=O | 19.1 µM (inactive) | 27 µM (inactive) | 16.2 µM (inactive) | 17.8 µM (inactive) | 15.6 µM (inactive) | 17.5 µM (inactive) | 34.5 µM (inactive) | > 100 µM (inactive) | 1.77 µM (inactive) | 20.9 µM (inactive) | 16.4 µM | 16.5 µM (inactive) | 15.2 µM (inactive) | 23.3 µM (inactive) | 32.9 µM (inactive) | 13.3 µM (inactive) | 33.5 µM (inactive) |  | 58.7 µM (inactive) | 25.9 µM (inactive)
N#CCSc1c(-c2ccccc2)c(=O)n(-c2ccccc2)c(=S)n1-c1ccccc1 | 95.3 µM (inactive) | > 100 µM (inactive) | 84.5 µM (inactive) | > 10 µM (inactive) | 4.99 µM (inactive) | > 100 µM (inactive) | > 100 µM (inactive) | > 100 µM (inactive) | > 100 µM (inactive) | > 100 µM (inactive) | > 100 µM | > 100 µM (inactive) |  | > 100 µM (inactive) | > 100 µM (inactive) | > 100 µM (inactive) | > 100 µM (inactive) | > 100 µM (inactive) | > 100 µM (inactive) | > 100 µM (inactive)
O/N=C/C1c2ccccc2-c2ccccc21 | 14.2 µM (inactive) | 16.6 µM (inactive) | 12.5 µM (inactive) | 20.8 µM (inactive) | 12.8 µM (inactive) | 16.6 µM (inactive) | 17.3 µM (inactive) | 14.4 µM (inactive) | 16.9 µM (inactive) | 17.9 µM (inactive) | 19.5 µM | 17.9 µM (inactive) | 19.5 µM (inactive) | 13.6 µM (inactive) | 16.8 µM (inactive) | 16.3 µM (inactive) |  |  | 17.4 µM (inactive) | 15.2 µM (inactive)
O=C(O)C1CC(O)CN1 (stereo not drawn) | > 100 µM (inactive) | > 100 µM (inactive) | > 100 µM (inactive) | > 100 µM (inactive) | > 100 µM (inactive) | > 100 µM (inactive) | > 100 µM (inactive) | > 100 µM (inactive) |  | > 100 µM (inactive) | > 100 µM | > 100 µM (inactive) | > 100 µM (inactive) | > 100 µM (inactive) | > 100 µM (inactive) | > 100 µM (inactive) | > 100 µM (inactive) | > 100 µM (inactive) | > 100 µM (inactive) | > 100 µM (inactive)
Cc1ccc2c(c1)CC1(Cc3cc(C)ccc3C1=O)C2=O | > 100 µM (inactive) |  | > 100 µM (inactive) | > 100 µM (inactive) | > 100 µM (inactive) | > 100 µM (inactive) | > 100 µM (inactive) | > 100 µM (inactive) | > 100 µM (inactive) | > 100 µM (inactive) | > 100 µM | > 100 µM (inactive) | > 100 µM (inactive) | > 100 µM (inactive) | > 100 µM (inactive) | > 100 µM (inactive) | > 100 µM (inactive) | > 100 µM (inactive) |  | > 100 µM (inactive)
COC(=O)C1CCC(=O)N1C(c1ccc(OC)cc1)c1ccc(OC)cc1 (stereo not drawn) | > 100 µM (inactive) | > 100 µM (inactive) | > 100 µM (inactive) | > 100 µM (inactive) | > 100 µM (inactive) | > 100 µM (inactive) | > 100 µM (inactive) | > 100 µM (inactive) | > 100 µM (inactive) | > 100 µM (inactive) | > 100 µM | > 100 µM (inactive) |  | > 100 µM (inactive) | > 100 µM (inactive) | > 100 µM (inactive) | > 100 µM (inactive) | > 100 µM (inactive) | > 100 µM (inactive) | > 100 µM (inactive)
CC(=O)O[C@H]1C(=O)[C@@]2(C)[C@H]([C@H](OC(=O)c3ccccc3)[C@]3(O)C[C@H](OC(=O)[C@H](OC(=O)OCCC(O)CO)[C@@H](NC(=O)c4ccccc4)c4ccccc4)C(C)=C1C3(C)C)[C@]1(OC(C)=O)CO[C@@H]1C[C@@H]2O (stereo partly drawn) | < 0.01 µM (active) | < 0.01 µM (active) | < 0.01 µM (active) | < 0.01 µM (active) | 12.8 µM (inactive) | < 0.01 µM (active) | < 0.01 µM (active) | 0.0104 µM (active) | < 0.01 µM (active) | < 0.01 µM (active) | 0.303 µM | < 0.01 µM (active) | < 0.037 µM (active) | 0.037 µM (active) | 3.56 µM (inactive) | < 0.01 µM (active) | < 0.016 µM (active) | 17.4 µM (inactive) | < 0.01 µM (active) | 
O=c1c2cc(S(=O)(=O)Nc3ccc(Cl)cc3Cl)ccc2ncn1NS(=O)(=O)c1cccc2ccccc12 | 48 µM (inactive) | 43.7 µM (inactive) |  | 36.5 µM (inactive) | 16.2 µM (inactive) | 71.4 µM (inactive) | 36.6 µM (inactive) | 66.8 µM (inactive) | 24 µM (inactive) | 40.4 µM (inactive) | 34.1 µM | 41.3 µM (inactive) |  | 14.7 µM (inactive) | 31.3 µM (inactive) | 30.5 µM (inactive) | 61.5 µM (inactive) | 41.7 µM (inactive) | 22.4 µM (inactive) | > 100 µM (inactive)
COC(=O)/C=C(\C)C(=O)N(C)c1ccccc1I | > 100 µM (inactive) | > 100 µM (inactive) | > 100 µM (inactive) | > 100 µM (inactive) | > 100 µM (inactive) | > 100 µM (inactive) | > 100 µM (inactive) | > 100 µM (inactive) |  | > 100 µM (inactive) | > 100 µM | > 100 µM (inactive) | > 100 µM (inactive) | > 100 µM (inactive) | > 100 µM (inactive) | > 100 µM (inactive) | > 100 µM (inactive) | > 100 µM (inactive) | > 100 µM (inactive) | > 100 µM (inactive)
COc1ccc(N2C(=O)/C(=C\c3cc(OC)c(OC)c(OC)c3)S(=O)(=O)C2c2ccccc2)cc1 (stereo not drawn) | 13.9 µM (inactive) | 4.39 µM (inactive) | 14.2 µM (inactive) | 71.3 µM (inactive) | 41.7 µM (inactive) | 48.6 µM (inactive) | 47.6 µM (inactive) | 37.5 µM (inactive) | 23.1 µM (inactive) | 25.8 µM (inactive) | 27.7 µM | 48.8 µM (inactive) | 15.7 µM (inactive) |  | 17.2 µM (inactive) | 18.8 µM (inactive) |  | 42 µM (inactive) | 29.2 µM (inactive) | 47.4 µM (inactive)
Cc1ccc(/C=C2\NC(=S)N(CN3CCCCC3)C2=O)cc1 | 65.2 µM (inactive) | 17 µM (inactive) | 33.3 µM (inactive) | 36.1 µM (inactive) | 0.416 µM (active) | 28.9 µM (inactive) |  | > 100 µM (inactive) | 35.8 µM (inactive) | > 100 µM (inactive) | 36.1 µM | > 100 µM (inactive) |  | 46.3 µM (inactive) | 57.7 µM (inactive) | 36.6 µM (inactive) | > 100 µM (inactive) | 39.4 µM (inactive) | > 100 µM (inactive) | 85.3 µM (inactive)

— ChEMBL document CHEMBL1201862, “PubChem BioAssay data set” (2004)
